# According to patent US8592431B2, “Fused ring compound and use thereof” (Takeda Pharmaceutical Company Limited, priority 2009, dated 2013):
# Target: human PPARγ (Homo sapiens (Human), UniProt P37231)
# Assay: PPARγ agonistic activity: luciferase reporter assay in PPARγ:RXRα:4ERPP/CHO-K1 cells
# Assay type: cell-based
# Settings: CHO-K1, test compound 10^−6 M; control compound X (1 μM) taken as 100%
# Source text: Evaluation of PPARγ Agonistic Activity
# (5) Introduction of Human PPARγ- and RXRα-Expression Plasmid and Reporter Plasmid into Cho-K1 Cell as Well as Establishment of Expressed Cell
# A CHO-K1 cell cultured in a 150 cm^2 cell culture flask [manufactured by Corning Costar Corporation, USA] comprising Ham's F12 medium [manufactured by INVITROGEN, USA] supplemented with 10% fetal bovine serum [manufactured by INVITROGEN, USA] was taken off by treating with 0.5 g/L trypsin-0.2 g/L EDTA (ethylenediamine tetraacetate) [manufactured by Life Technologies, Inc., USA], and then the cell was washed with PBS (Phosphate-buffered saline) [manufactured by INVITROGEN, USA], centrifuged (1000 rpm, 5 minutes) and suspended in PBS. Subsequently, DNA was introduced into the cell under the conditions shown below using GENE PULSER [manufactured by Bio-Rad Laboratories, USA].
# Namely, to a cuvette having a 0.4 cm gap were added 8×10^6 cells and 10 μg of plasmid pVgRXR2-hPPARγ obtained in the above-mentioned (4) and 10 μg of reporter plasmid pGL3-4ERPP-TK neo obtained in the above-mentioned (3), which was subjected to electroporation at the voltage of 0.25 kV under the capacitance of 960 μF. Subsequently, the cell was transferred into a F12 medium comprising 10% fetal bovine serum and cultured for 24 hours, and then the cell was taken off again and centrifuged. Then, the pellet was suspended in Ham's F12 medium comprising 10% fetal bovine serum supplemented with 500 μg/ml of Geneticin [manufactured by INVITROGEN, USA] and 250 μg/ml of Zeocin [manufactured by INVITROGEN, USA]. The obtained suspension was diluted to the density of 10^4 cells/ml and inoculated in a 96-well plate [manufactured by Corning Costar Corporation, USA], which was cultured in a CO2 gas incubator at 37° C., whereby obtaining a Geneticin- and Zeocin-resistant transformant.
# Subsequently, after the transformed cell line thus obtained was cultured in a 24-well plate [manufactured by Corning Costar Corporation, USA], a cell line in which expression of the luciferase was induced, i.e., PPARγ:RXRα:4ERPP/CHO-K1 cell was selected by the addition of 10 μM pioglitazone hydrochloride.
# (6) Evaluation of PPARγ Agonistic Activity
# PPARγ:RXRα:4ERPP/CHO-K1 cells obtained in the above-mentioned (5) were cultured in F12 medium [manufactured by INVITROGEN, USA] containing 10% fetal bovine serum [manufactured by MOREGATE, Australia], seeded in a 96 well half-area white plate [manufactured by Corning Coster Corporation, USA] at 5×10^3 cells/well, and cultured in a CO2 incubator at 37° C. overnight.
# Then, the medium was removed from the 96 well half-area white plate, hamF12 medium containing 0.1% fatty acid-free bovine serum albumin (BSA) (45 μl) and a test compound (5 μl) were added, and the mixture was cultured in the CO2 incubator at 37° C. for 1 day. After removing the medium, Picagene 7.5 [manufactured by Dai Nippon Inki, Japan] (20 μl) diluted 2-fold with HBSS (HANKS' BALANCED SALT SOLUTION) [manufactured by BIO […], USA] was added, and the mixture was stirred. Using 1420 ARVO Multilabel Counter [manufactured by PerkinElmer, USA], luciferase activity was measured.
# The percentage (%) was calculated from the luciferase activity of the test compound when the luciferase activity of the control compound (compound X: 5-[3-(4-{[2-(2-furyl)-5-methyl-1,3-oxazol-4-yl]methoxy}-3-methoxyphenyl)propyl]-1,3-oxazolidine-2,4-dione) (1 μM) was taken as 100% and the luciferase activity of the test compound non-administration group was taken as 0%.
# Sequence of human PPARγ (P37231 29-505): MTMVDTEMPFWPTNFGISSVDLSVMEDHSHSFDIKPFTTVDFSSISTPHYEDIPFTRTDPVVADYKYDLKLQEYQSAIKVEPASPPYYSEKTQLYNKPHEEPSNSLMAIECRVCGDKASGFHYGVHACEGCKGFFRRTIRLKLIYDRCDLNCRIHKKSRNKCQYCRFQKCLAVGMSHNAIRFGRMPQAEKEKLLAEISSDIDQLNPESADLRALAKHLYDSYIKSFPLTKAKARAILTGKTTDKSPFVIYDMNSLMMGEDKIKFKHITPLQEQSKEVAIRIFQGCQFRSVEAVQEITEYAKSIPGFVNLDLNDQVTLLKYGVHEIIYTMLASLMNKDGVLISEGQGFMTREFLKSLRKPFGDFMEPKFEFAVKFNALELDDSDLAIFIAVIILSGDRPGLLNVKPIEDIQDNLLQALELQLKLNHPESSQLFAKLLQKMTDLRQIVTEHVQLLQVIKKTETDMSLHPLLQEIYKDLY
# Sequence of human PPARγ (P19793 whole entry partner): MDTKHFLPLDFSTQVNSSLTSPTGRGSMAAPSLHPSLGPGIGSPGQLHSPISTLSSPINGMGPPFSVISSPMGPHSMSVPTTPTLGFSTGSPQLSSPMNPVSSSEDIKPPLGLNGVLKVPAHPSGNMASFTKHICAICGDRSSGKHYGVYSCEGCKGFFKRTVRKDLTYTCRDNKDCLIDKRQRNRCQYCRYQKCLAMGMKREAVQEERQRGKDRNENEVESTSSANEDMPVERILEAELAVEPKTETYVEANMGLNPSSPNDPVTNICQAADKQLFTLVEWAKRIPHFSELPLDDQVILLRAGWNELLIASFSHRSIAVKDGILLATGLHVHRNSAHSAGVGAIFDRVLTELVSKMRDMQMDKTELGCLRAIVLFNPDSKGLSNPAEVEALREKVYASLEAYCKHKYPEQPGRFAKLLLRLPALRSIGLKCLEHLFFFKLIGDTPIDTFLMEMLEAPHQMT
row,Compound,activation at 1 µM
1,"CCCc1c(Cc2ccc(-c3ccccc3-c3noc(=O)[nH]3)cc2)c(=O)n([C@H]2CC[C@H](OC(C)C(C)(C)O)CC2)c2ncnn12 (single isomer, unassigned) [Example 318, 4-[trans-4-(2-hydroxy-1,2-dimethylpropoxy)cyclohexyl]-6-{[2′-(5-oxo-4,5-dihydro-1,2,4-oxadiazol-3-yl)biphenyl-4-yl]methyl}-7-propyl[1,2,4]triazolo[1,5-a]pyrimidin-5(4H)-one (Retention Time: Short)]",17%
2,"CCCc1c(Cc2ccc(-c3ccccc3-c3noc(=O)[nH]3)cc2F)c(=O)n([C@H]2CC[C@H](OC(C)C(C)(C)O)CC2)c2ncnn12 (single isomer, unassigned; (+)) [Example 247, (+)-6-{[3-fluoro-2′-(5-oxo-4,5-dihydro-1,2,4-oxadiazol-3-yl)biphenyl-4-yl]methyl}-4-[trans-4-(2-hydroxy-1,2-dimethylpropoxy)cyclohexyl]-7-propyl[1,2,4]triazolo[1,5-a]pyrimidin-5(4H)-one]",17%

# Same assay, conditions: test compound 10^−6 M; control compound X (1 μM) taken as 100%
row,Compound,PPARγ agonistic activity (activation % (10^−6 M))
1,"CCCc1c(Cc2ccc(-c3ccccc3-c3noc(=O)[nH]3)cc2)c(=O)n(C2CCC(OCC(C)O)CC2)c2ccnn12 (single isomer, unassigned) [Example 441, 4-[trans-4-(2-hydroxypropoxy)cyclohexyl]-6-{[2′-(5-oxo-4,5-dihydro-1,2,4-oxadiazol-3-yl)biphenyl-4-yl]methyl}-7-propylpyrazolo[1,5-a]pyrimidin-5(4H)-one (Optically Active Form, Retention Time: Long)]",19%
2,"CCCc1c(Cc2ccc(-c3ccccc3-c3noc(=O)[nH]3)cc2)c(=O)n([C@H]2CC[C@H](OC(C)C(C)(C)O)CC2)c2ncnn12 (single isomer, unassigned) [Example 319, 4-[trans-4-(2-hydroxy-1,2-dimethylpropoxy)cyclohexyl]-6-{[2′-(5-oxo-4,5-dihydro-1,2,4-oxadiazol-3-yl)biphenyl-4-yl]methyl}-7-propyl[1,2,4]triazolo[1,5-a]pyrimidin-5(4H)-one (Retention Time: Long)]",16%
3,"CCCCc1c(Cc2ccc(-c3ccccc3-c3noc(=O)[nH]3)cc2)c(=O)n(C2CCOC(C)C2)c2ncnn12 (stereo not drawn) [Example 160, 7-butyl-4-(2-methyltetrahydro-2H-pyran-4-yl)-6-{[2′-(5-oxo-4,5-dihydro-1,2,4-oxadiazol-3-yl)biphenyl-4-yl]methyl}[1,2,4]triazolo[1,5-a]pyrimidin-5(4H)-one]",26%
4,"CCCCc1c(Cc2ccc(-c3ccccc3-c3noc(=O)[nH]3)cc2)c(=O)n(C2CCOC(C)C2)c2ncnn12 (stereo not drawn) [Example 161, 7-butyl-4-(2-methyltetrahydro-2H-pyran-4-yl)-6-{[2′-(5-oxo-4,5-dihydro-1,2,4-oxadiazol-3-yl)biphenyl-4-yl]methyl}[1,2,4]triazolo[1,5-a]pyrimidin-5(4H)-one]",47%
5,"CCCc1c(Cc2ccc(-c3ccccc3-c3noc(=O)[nH]3)cc2)c(=O)n([C@H]2CC[C@H](OC(C)C(C)(C)O)CC2)c2ncnn12 (stereo partly drawn) [Example 300, 4-[trans-4-(2-hydroxy-1,2-dimethylpropoxy)cyclohexyl]-6-{[2′-(5-oxo-4,5-dihydro-1,2,4-oxadiazol-3-yl)biphenyl-4-yl]methyl}-7-propyl[1,2,4]triazolo[1,5-a]pyrimidin-5(4H)-one]",16%
6,"CCCc1c(Cc2ccc(-c3ccccc3-c3noc(=O)[nH]3)cc2F)c(=O)n([C@H]2CC[C@H](OC(C)C(C)(C)O)CC2)c2ncnn12 (single isomer, unassigned) [Example 248, 6-{[3-fluoro-2′-(5-oxo-4,5-dihydro-1,2,4-oxadiazol-3-yl)biphenyl-4-yl]methyl}-4-[trans-4-(2-hydroxy-1,2-dimethylpropoxy)cyclohexyl]-7-propyl[1,2,4]triazolo[1,5-a]pyrimidin-5(4H)-one]",19%

# Target: human AT1 receptor (Homo sapiens (Human), UniProt P30556)
# Assay: AT1 receptor antagonistic activity: [125I]-angiotensin II binding assay with AT1 membrane
# Settings: 22.5 pM [125I]-angiotensin II, human AT1 receptor-expressing CHO-K1 membrane, 1 hr room temperature
# Method: Evaluation of AT1 Receptor Antagonistic Activity
# (1) Preparation of Human AT1 Receptor-Expressing CHO-K1 Cellular Membrane Fraction
# CHO-K1 cell (RIKEN, Japan) capable of stable expression of human AT1 receptor was cultured, recovered, suspended in homogenize buffer (10 mM NaHCO3 (pH 7.4), 5 mM EDTA, 1× Complete EDTA free) [manufactured by Roche, Switzerland], and homogenized. The homogenate was centrifuged at low-speed (900×g, 10 min, 4° C.), and the supernatant was recovered and ultracentrifuged (90,000×g, 1 hr, 4° C.). The supernatant was discarded, and the pellets were resuspended in suspension buffer (50 mM Tris (pH 7.4), 1 mM EDTA, 1× Complete EDTA free).
# (2) Evaluation of AT1 Receptor Antagonistic Activity
# (9 μg) in the presence of AT1 membrane and test compound in 100 μL (total reaction volume) of reaction buffer (50 mM Tris (pH 7.4), 10 mM MgCl2 supplemented or not supplemented with 0.3 mg/mL fatty acid-free bovine serum albumin [manufactured by Wako Pure Chemical Industries, Ltd., Japan]). The reaction mixture was incubated in 96 well polypropylene plate for 1 hr at room temperature, and the reaction was quenched by rapid filtration (96 well cell harvester) through a GF/C filter treated with wash buffer (50 mM Tris (pH 7.4)). Subsequently, the filter was washed 5 times with 0.3 mL of ice-cooled wash buffer. […] Total binding was measured in the presence of 1% DMSO and nonspecific binding was measured in the presence of 1 μM Candesartan.
# Sequence of human AT1 receptor (P30556 whole entry): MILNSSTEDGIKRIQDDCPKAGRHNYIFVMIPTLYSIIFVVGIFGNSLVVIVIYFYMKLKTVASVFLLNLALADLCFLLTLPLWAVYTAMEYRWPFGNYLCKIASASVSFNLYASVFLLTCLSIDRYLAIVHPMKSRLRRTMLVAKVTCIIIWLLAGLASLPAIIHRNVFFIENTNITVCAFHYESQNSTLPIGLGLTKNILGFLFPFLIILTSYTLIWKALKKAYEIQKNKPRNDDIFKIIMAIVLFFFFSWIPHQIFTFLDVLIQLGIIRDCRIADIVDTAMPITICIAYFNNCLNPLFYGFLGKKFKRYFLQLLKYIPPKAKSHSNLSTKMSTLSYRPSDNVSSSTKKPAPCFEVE
row,Compound,IC50
1,"CCCc1c(Cc2ccc(-c3ccccc3-c3noc(=O)[nH]3)cc2)c(=O)n(C2CCC(OCC(C)O)CC2)c2ccnn12 (single isomer, unassigned) [Example 441, 4-[trans-4-(2-hydroxypropoxy)cyclohexyl]-6-{[2′-(5-oxo-4,5-dihydro-1,2,4-oxadiazol-3-yl)biphenyl-4-yl]methyl}-7-propylpyrazolo[1,5-a]pyrimidin-5(4H)-one (Optically Active Form, Retention Time: Long)]",1.6 nM
2,"CCCc1c(Cc2ccc(-c3ccccc3-c3nc(=O)o[nH]3)cc2)c(=O)n(C2CCC(OCC(C)O)CC2)c2ccnn12 (single isomer, unassigned) [Example 440, 4-[trans-4-(2-hydroxypropoxy)cyclohexyl]-6-{[2′-(5-oxo-4,5-dihydro-1,2,4-oxadiazol-3-yl)biphenyl-4-yl]methyl}-7-propylpyrazolo[1,5-a]pyrimidin-5(4H)-one (Optically Active Form, Retention Time: Short)]",1.8 nM
3,"CCCc1c(Cc2ccc(-c3ccccc3-c3noc(=O)[nH]3)cc2F)c(=O)n([C@H]2CC[C@H](OC(C)C(C)(C)O)CC2)c2ncnn12 (single isomer, unassigned) [Example 248, 6-{[3-fluoro-2′-(5-oxo-4,5-dihydro-1,2,4-oxadiazol-3-yl)biphenyl-4-yl]methyl}-4-[trans-4-(2-hydroxy-1,2-dimethylpropoxy)cyclohexyl]-7-propyl[1,2,4]triazolo[1,5-a]pyrimidin-5(4H)-one]",2.2 nM

# Test system: Male SHRs
# Assay: Antihypertensive effect: mean blood pressure in SHRs after oral administration
# Assay type: in vivo, rat
# Settings: SHR, dose 3 mg/kg, during 24 hours after administration
# Method: Male SHRs (28-40 weeks old, Japan SLC, Inc., Japan) were anesthetized with sodium pentobarbital (50 mg/kg, i.p.). The left femoral artery was cannulated with a polyethylene catheter filled with saline comprising heparin (200 U/mL). The catheter was exteriorized at the back of the neck and each SHR was individually housed in a cage and left two or four days to recover. The mean blood pressure (MBP) was obtained from the systemic blood pressure which was monitored from the femoral artery using a pressure transducer connected to a polygraph system (Nihon Kohden Corporation). The heart rate was measured from the blood pressure pulse intervals. The rats which had MBP over 150 mmHg were used for the experiment. When the blood pressure had stabilized, vehicle (0.5 w/v % methylcellulose) or compounds were orally administered. All compounds were suspended in 0.5 w/v % methylcellulose and orally administered at a volume of 2 mL/kg. The MBP was measured during 24 hours after the administration.
row,Compound,Maximum MBP reduction (mmHg)
1,"CCCc1c(Cc2ccc(-c3ccccc3C3=NOC(O)N3)cc2F)c(=O)n(C2CCC(OC(C)C(C)(C)O)CC2)c2ncnn12.[K+] (single isomer, unassigned; (-)) [Example 459, (−)-6-{[3-fluoro-2′-(5-oxo-4,5-dihydro-1,2,4-oxadiazol-3-yl)biphenyl-4-yl]methyl}-4-[trans-4-(2-hydroxy-1,2-dimethylpropoxy)cyclohexyl]-7-propyl[1,2,4]triazolo[1,5-a]pyrimidin-5(4H)-one potassium salt (Retention Time: Long)]",64 mmHg
